In patent US20250000836A1, “PARTICLE DELIVERY OF THYROID HORMONE RECEPTOR AGONISTS AND ANTAGONISTS” (CYTA THERAPEUTICS, INC., priority 2021, published 2025):
Marks after values point to notes of the source that are not given here.

Columns and labels:
[1] = tested on: Diet Induced Obese (DIO) mice; test: In vivo serum T4 and TSH analysis in Diet Induced Obese mice; conditions: 5, 10 or 20 μg/kg, 12-week and 24-week timepoints, compared to lean control and high fat control
Experimental: A Diet Induced Obese (DIO) mouse model was used to study the in vivo effects of the CGS26214-encapsulated nanogels with anionic group-modified backbone (CGS-ANG), referred to as “CYTA-001,” on serum T4 and TSH within the context of obesity.
The DIO mice were treated with either the non-liver targeted TRβ agonist, Axitirome (CGS26214), also referred to as “drug” in FIGS. 10A and B, or CYTA-001 at 5 μg/kg, 10 μg/kg, or 20 μg/kg for 12 weeks or 24 weeks. Treated DIO mice serum T4/TSH levels were compared to a lean control (LC control), or low fat diet, and to a high fat control (HF control). After each designated treatment period, all the mice were sacrificed unfasted by cardiac puncture after gradual-fill CO2 asphyxiation. Terminal blood samples were collected in SST-SERUM separator tubes for serum collection.
Serum was analyzed for thyroid hormone T4 and thyroid stimulating hormone (TSH) levels. […] This is an unexpected result as thyromimetics have not been observed for weight loss without some level of peripheral activation of the TRα or TRβ receptor. Peripheral activation of the TRα receptor is generally toxic and ideally avoided.

[2] = tested on: HFD-induced NASH (fully developed NASH model), male C57BL/6J mice; test: Serum biochemical analysis, fully developed NASH model (24 week HFD prior to dosing); assay type: in vivo; conditions: 5 weeks, mean ± SE
Experimental: (§1) All animal care and experimental procedures were approved by the Ethical Committee on Animal Care and Experimentation. Male C57BL/6J mice were purchased at 6 weeks of age from the Jackson Laboratory and housed in a controlled environment (12 h light/dark cycle, 21±2° C., humidity 50±10%). Mice were permitted ad libitum access to water and either 10 kcal % fat control diet (CD, Cat #D09100304, Research Diets) or 40 kcal % fat, 20 kcal % fructose and 2% cholesterol high fat diet (HFD, Cat #D09100310, Research Diets).
(§2) To test the therapeutic effect of CGS-ANG in treating HFD-induced NASH, mice were fed HFD or LFD for 24 weeks (fully developed NASH model) and then randomly assigned to 9 groups with 8-10 mice per group before the medical treatments: (1), CD: mice fed the CD diet and treated with vehicle; (2), HFD: mice fed the HFD diet and treated with vehicle; (3), CGS-D1: mice fed the HFD diet and treated with 5 μg/kg of CGS26214; (4), CGS-D2: mice fed the HFD diet and treated with 10 μg/kg of CGS26214; (5) CGS-D3: mice fed the HFD diet and treated with 20 μg/kg of CGS 26214; (6) CNG-D1: mice fed the HFD diet and treated with CGS-ANG loaded with CGS26214 at a dose of 5 μg/kg; (7) CNG-D2: mice fed the HFD diet and treated with CGS-ANG loaded with CGS 26214 at a dose of 10 μg/kg; (8) CNG-D3: mice fed the HFD diet and treated with CGS-ANG loaded with CGS 26214 at a dose of 20 μg/kg; (9) BNG: mice fed the HFD diet and treated with BNG with the same dose of nanogels as group (8). All the treatments were injected intraperitoneally at the doses indicated once per day before the dark cycle of the day for 5 weeks.
(§3) After each designated treatment period, all the mice were sacrificed unfasted by cardiac puncture after gradual-fill CO2 asphyxiation. Terminal blood samples were collected in SST-SERUM separator tubes for serum collection. Epididymal fat pads (EFP), liver and hearts were removed and weighed. Data (weight gain, liver weight, heart weight, epididymal fat pad weight) from the 12 week and 24 week study are shown in FIGS. 3A-3D and 4A-4D, respectively. Portions of livers and hearts were collected and stored at −80° C. or fixed in 4% paraformaldehyde solution (Sigma-Aldrich, St. Louis, MO) for further analysis. Visual images of mice from each treatment groups at 24 weeks is shown in FIG. 5 while images of mice liver from each treatment group at 24 weeks is shown in FIG. 6.
(§4) Analysis of serum cholesterol (TC), high-density lipoprotein cholesterol (HDL-C), low-density lipoprotein cholesterol (LDL-C), triglycerides (TG), serum alanine aminotransferase (ALT) and aspartate aminotransferase (AST) was performed at Indexx BioAnalytics (North Grafton, MA) Plasma glucose, insulin, amyloid A (SAA), E-selectin and monocyte chemoattractant protein-1 (MCP-1) were quantified using commercial kits. Data from the 12 week and 24 week study are shown in Table 2 and Table 3, respectively.

[3] = tested on: HFD-induced NASH (mild NASH model), male C57BL/6J mice; test: Serum biochemical analysis, mild NASH model (12 week HFD prior to dosing); assay type: in vivo; conditions: for ALT / AST / Cholesterol / HDL Cholesterol / LDL Cholesterol / Triglycerides: serum, 12 week HFD prior to dosing, 5 weeks, mean ± SE
Experimental: as §1
To test the preventative effect of CGS-ANG in treating HFD-induced NASH, mice were fed high fat diet (HFD) or low fat diet (CD) for 12 weeks (mild NASH model) and then randomly assigned to 9 groups with 8-10 mice per group before treatment: (1), CD: mice fed the CD diet and treated with vehicle; (2), HFD: mice fed the HFD diet and treated with vehicle; (3), CGS-D1: mice fed the HFD diet and treated with 10 μg/kg of CGS26214 (suspended in saline with 1% DMSO); (4), CGS-D2: mice fed the HFD diet and treated with 20 μg/kg of CGS26214; (5) CGS-D3: mice fed the HFD diet and treated with 60 μg/kg of CGS26214; (6) CNG-D1: mice fed the HFD diet and treated with CGS-ANG loaded with CGS26214 at a dose of 10 μg/kg; (7) CNG-D2: mice fed the HFD diet and treated with CGS-ANG loaded with CGS26214 at a dose of 20 μg/kg; (8) CNG-D3: mice fed the HFD diet and treated with CGS-ANG loaded with CGS 26214 at a dose of 60 μg/kg; (9) BNG: mice fed the HFD diet and treated with BNG with the same dose of nanogels with group (8). All the treatments were injected intraperitoneally at the doses indicated once per day before the dark cycle of the day for 5 weeks.
as §3, §4

[4] = tested on: Diet Induced Obese (DIO) mice; test: In vivo insulin resistance analysis (HOMA-IR) in DIO mice; conditions: 24 weeks HFD then 5-week dosing at 5, 10 or 20 μg/kg
Experimental: DIO mice were used to study the in vivo effects of CYTA-001 on insulin resistance within the context of obesity and diet. Homeostatic model assessment for insulin resistance (HOMA-IR) levels were measured in DIO mice that were conditioned on high fat diets (HFD) for 24 weeks prior to a 5-week dosing regimen. The HFD DIO mice were treated with either the non-liver targeted TRβ agonist, Axitirome (CGS26214), also referred to as “drug” in FIG. 11, or CYTA-001 at 5 μg/kg, 10 μg/kg, or 20 μg/kg dosages for 5 weeks.

[5] = tested on: HFD-induced NASH, mouse liver; test: Liver histology (H&E, Masson's trichrome), 24 week study; assay type: in vivo, mice; conditions: groups CGS-2 / CNG-2 (10 μg/kg CGS26214 i.p. once per day, 5 weeks)
Experimental: as §2, with “weeks. […]” for “weeks.”

[6] = Body weight and liver weight in the 12 week and 24 week HFD NASH models; assay type: in vivo, mice; conditions: the two models (12 week and 24 week HFD), i.p. once per day, 5 weeks
Experimental: as §1, with “Diets). […]” for “Diets).”
Body weight and food intake per cage were measured regularly during the study. […]

[7] = 5 μg/kg CGS26214 i.p. once per day
[8] = 10 μg/kg CGS26214 i.p. once per day
[9] = 20 μg/kg CGS26214 i.p. once per day
[10] = 60 μg/kg CGS26214 i.p. once per day

In the case of `CCOC(=O)C(=O)Nc1cc(C)c(Oc2ccc(O)c(C(O)c3ccc(F)cc3)c2)c(C)c1` (racemic) [CGS26214, ethyl (+−)-((4-(3-((4-fluorophenyl)hydroxymethyl)-4-hydroxyphenoxy)-3,5-dimethylphenyl)amino)oxoacetate], the “change in serum TSH” value [1] is reported as “statistically significant change”, the ALT [2, 7] is reported as 276 ± 20^d and the AST [2, 7] is reported as 319 ± 15^ceg. The Cholesterol [2, 7] was 278.9 ± 20.2^cef mg/dL, the “LDL Cholesterol” value [2, 7] was 18.4 ± 2.3 mg/dL and the ALT [2, 8] was 257 ± 20^cd. The Cholesterol [2, 8] was 236.8 ± 16.6^cd mg/dL, the “HDL Cholesterol” value [2, 8] was 113.4 ± 5.5^ab mg/dL and the “LDL Cholesterol” value [2, 8] was 15.3 ± 1.1 mg/dL. For the same compound, the Triglycerides [2, 8] was 94.7 ± 9.5^cdf mg/dL, the ALT [2, 9] was 225 ± 10^cd and the AST [2, 9] was 247 ± 17^de. The Cholesterol [2, 9] was 196.9 ± 10.2^ade mg/dL, the “HDL Cholesterol” value [2, 9] was 96.3 ± 3.9^ac mg/dL and the “LDL Cholesterol” value [2, 9] was 11.4 ± 1.2 mg/dL. The Triglycerides [2, 9] was 90.3 ± 5.7^ad mg/dL, the ALT [3, 8] was 196 ± 26 and the AST [3, 8] was 205 ± 27. The Cholesterol [3, 8] was 158.2 ± 19.2 mg/dL, the “HDL Cholesterol” value [3, 8] was 87.2 ± 9.6 mg/dL and the “LDL Cholesterol” value [3, 8] was less than 7 mg/dL. For the same compound, the Triglycerides [3, 8] was 87.6 ± 3.5 mg/dL, the ALT [3, 9] was 217 ± 28 and the AST [3, 9] was 252 ± 47. The Cholesterol [3, 9] was 155.8 ± 11.8 mg/dL, the “HDL Cholesterol” value [3, 9] was 76.8 ± 5.8 mg/dL and the “LDL Cholesterol” value [3, 9] was less than 7 mg/dL. The Triglycerides [3, 9] was 83.5 ± 10 mg/dL, the ALT [3, 10] was 279 ± 68 and the AST [3, 10] was 303 ± 49. For the same compound, the Cholesterol [3, 10] was 105.5 ± 23.7 mg/dL, the “HDL Cholesterol” value [3, 10] was 53.1 ± 10.8 mg/dL and the “LDL Cholesterol” value [3, 10] was less than 7 mg/dL. The Triglycerides [3, 10] was 78.7 ± 7.2 mg/dL, the “reversing or preventing changes in biochemical markers induced by the high-fat diet” value ([3]; summary of Tables 2 and 3 (12 week and 24 week models), compared with LC control) was “much less effective” and the “insulin resistance (HOMA-IR)” value [4] was “not observed to produce a significant effect”. The “fibrosis and collagen deposition (Masson's trichrome staining)” value [5] was “show signs of fibrosis and collagenous tissue fiber formation”, the “steatosis, inflammation and ballooning degeneration (hematoxylin-eosin staining)” value [5] was “show macrovesicular and microvesicular steatosis, inflammation, and ballooning degeneration” and the “effects on body weight” value [6] was “only moderate effects”. For the same compound, the “effects on liver weight” value [6] was “only moderate effects”.
